{
  "source": "patent US20080207667A1",
  "about": "(priority 2007, published 2008)",
  "key": {"asthmatic": {"system": "asthmatic", "assay": "Spirometry pre and post treatment with nebulized nalbuphine (Example 2)", "type": "in vivo, human", "protocol": "In this example, an asthmatic taking advair diskus for treatment of asthma was treated with nalbuphine according to the present method. Spirometry measurements were taken pre and post treatment with nebulized nalbuphine."}, "smoker": {"system": "smoker", "assay": "Spirometry pre and post treatment with nebulized nalbuphine (Example 3)", "type": "in vivo, human", "text": "Spirometry measurements were taken pre and post treatment with nebulized nalbuphine."}, "[1]": {"conditions": "nalbuphine and its salts; cited from earlier work"}, "[2]": {"system": "subject suffering from a respiratory disorder (former smoker)", "assay": "Spirometry pre and post treatment with nebulized nalbuphine (Example 1)", "type": "in vivo, human", "conditions": "for FEF (25–75%) % of Prediction / FEF (25–75%) (L/S) Actual / FEV1 % of Prediction / FEV1 (L) Actual / FEV1/FVC % of Prediction / FEV1/FVC (%) Actual / FVC % of Prediction / FVC (L) Actual / PEF % of Prediction / PEF (L/S) Actual / FEF (25–75%) % Change / FEV1 % Change / FEV1/FVC % Change / FVC % Change / PEF % Change: post nebulized nalbuphine", "text": "This example illustrates the use of nalbuphine to treat a subject suffering from a respiratory disorder. The subject was a former smoker. Spirometry measurements were taken pre and post treatment with nebulized nalbuphine."}, "[3]": {"conditions": "asthmatic taking advair diskus, post nebulized nalbuphine"}, "[4]": {"conditions": "post nebulized nalbuphine vs pre-nalbuphine"}, "[5]": {"conditions": "smoker treated with combivent and spiriva, post nebulized nalbuphine"}, "[6]": {"conditions": "Treatment #1, vs pre-nalbuphine"}, "[7]": {"conditions": "Treatment #1, vs pre-nalbuphine, listed as nalbuphine"}, "[8]": {"conditions": "Treatment #2, vs pre-nalbuphine"}, "[9]": {"conditions": "Treatment #3, vs pre-nalbuphine"}},
  "data": [
    {"smiles": "Oc1ccc2c3c1O[C@H]1[C@@H](O)CC[C@@]4(O)[C@@H](C2)N(CC2CCC2)CC[C@]314", "note": "[Nalbuphine, nalbuphine]", "values": [
      {"measurement": "FEV1 % of Prediction", "setting": "asthmatic; [3]", "value": 35, "unit": "%"},
      {"measurement": "FEV1 (L) Actual", "setting": "asthmatic; [3]", "value": 0.555, "unit": "L"},
      {"measurement": "FVC % of Prediction", "setting": "asthmatic; [3]", "value": 54, "unit": "%"},
      {"measurement": "FVC (L) Actual", "setting": "asthmatic; [3]", "value": 1.155, "unit": "L"},
      {"measurement": "FEV1 % Change", "setting": "asthmatic; [4]", "value": 48, "unit": "%"},
      {"measurement": "FVC % Change", "setting": "asthmatic; [4]", "value": 35, "unit": "%"},
      {"measurement": "FVC and FEV1 after treatment", "setting": "asthmatic; summary in words", "value": "dramatic increase in FVC and FEV1"},
      {"measurement": "FEV1 % Change", "setting": "smoker; [4]", "value": 39, "unit": "%"},
      {"measurement": "FVC % Change", "setting": "smoker; [4]", "value": 34, "unit": "%"},
      {"measurement": "FEV1 % of Prediction", "setting": "smoker; [5]", "value": 84, "unit": "%"},
      {"measurement": "FEV1 (L) Actual", "setting": "smoker; [5]", "value": 2.745, "unit": "L"},
      {"measurement": "FVC % of Prediction", "setting": "smoker; [5]", "value": 78, "unit": "%"},
      {"measurement": "FVC (L) Actual", "setting": "smoker; [5]", "value": 3.285, "unit": "L"},
      {"measurement": "lung capacity and airflow after treatment", "setting": "smoker; summary in words", "value": "marked improvement in lung capacity and airflow"},
      {"measurement": "solubility in water", "setting": "[1]", "value": "sparingly soluble in water"},
      {"measurement": "FEF (25–75%) % of Prediction", "setting": "[2]; Treatment #1", "value": 130, "unit": "%"},
      {"measurement": "FEF (25–75%) (L/S) Actual", "setting": "[2]; Treatment #1", "value": 5.043, "unit": "L/S"},
      {"measurement": "FEV1 % of Prediction", "setting": "[2]; Treatment #1", "value": 139, "unit": "%"},
      {"measurement": "FEV1 (L) Actual", "setting": "[2]; Treatment #1", "value": 4.223, "unit": "L"},
      {"measurement": "FEV1/FVC % of Prediction", "setting": "[2]; Treatment #1", "value": 106, "unit": "%"},
      {"measurement": "FEV1/FVC (%) Actual", "setting": "[2]; Treatment #1", "value": 84, "unit": "%"},
      {"measurement": "FVC % of Prediction", "setting": "[2]; Treatment #1", "value": 133, "unit": "%"},
      {"measurement": "FVC (L) Actual", "setting": "[2]; Treatment #1", "value": 5.035, "unit": "L"},
      {"measurement": "PEF % of Prediction", "setting": "[2]; Treatment #1", "value": 93, "unit": "%"},
      {"measurement": "PEF (L/S) Actual", "setting": "[2]; Treatment #1", "value": 5.98, "unit": "L/S"},
      {"measurement": "FEF (25–75%) % Change", "setting": "[2]; [6]", "value": 37.50, "unit": "%"},
      {"measurement": "FEV1 % Change", "setting": "[2]; [6]", "value": 46, "unit": "%"},
      {"measurement": "FEV1/FVC % Change", "setting": "[2]; [6]", "value": 2, "unit": "%"},
      {"measurement": "FVC % Change", "setting": "[2]; [6]", "value": 44.0, "unit": "%"},
      {"measurement": "PEF % Change", "setting": "[2]; [6]", "value": "−6.4", "unit": "%"},
      {"measurement": "FEV1 % Change", "setting": "[2]; [7]", "value": "forty six"},
      {"measurement": "FVC % Change", "setting": "[2]; [7]", "value": "forty-four"},
      {"measurement": "FEF (25–75%) % of Prediction", "setting": "[2]; Treatment #2", "value": 137, "unit": "%"},
      {"measurement": "FEF (25–75%) (L/S) Actual", "setting": "[2]; Treatment #2", "value": 5.327, "unit": "L/S"},
      {"measurement": "FEV1 % of Prediction", "setting": "[2]; Treatment #2", "value": 134, "unit": "%"},
      {"measurement": "FEV1 (L) Actual", "setting": "[2]; Treatment #2", "value": 4.259, "unit": "L"},
      {"measurement": "FEV1/FVC % of Prediction", "setting": "[2]; Treatment #2", "value": 107, "unit": "%"},
      {"measurement": "FEV1/FVC (%) Actual", "setting": "[2]; Treatment #2", "value": 84, "unit": "%"},
      {"measurement": "FVC % of Prediction", "setting": "[2]; Treatment #2", "value": 127, "unit": "%"},
      {"measurement": "FVC (L) Actual", "setting": "[2]; Treatment #2", "value": 4.827, "unit": "L"},
      {"measurement": "PEF % of Prediction", "setting": "[2]; Treatment #2", "value": 113, "unit": "%"},
      {"measurement": "PEF (L/S) Actual", "setting": "[2]; Treatment #2", "value": 7.297, "unit": "L/S"},
      {"measurement": "FEF (25–75%) % Change", "setting": "[2]; [8]", "value": 45, "unit": "%"},
      {"measurement": "FEV1 % Change", "setting": "[2]; [8]", "value": 40, "unit": "%"},
      {"measurement": "FEV1/FVC % Change", "setting": "[2]; [8]", "value": 2, "unit": "%"},
      {"measurement": "FVC % Change", "setting": "[2]; [8]", "value": 38, "unit": "%"},
      {"measurement": "PEF % Change", "setting": "[2]; [8]", "value": 14, "unit": "%"},
      {"measurement": "FEF (25–75%) % of Prediction", "setting": "[2]; Treatment #3", "value": 129, "unit": "%"},
      {"measurement": "FEF (25–75%) (L/S) Actual", "setting": "[2]; Treatment #3", "value": 4.998, "unit": "L/S"},
      {"measurement": "FEV1 % of Prediction", "setting": "[2]; Treatment #3", "value": 136, "unit": "%"},
      {"measurement": "FEV1 (L) Actual", "setting": "[2]; Treatment #3", "value": 4.11, "unit": "L"},
      {"measurement": "FEV1/FVC % of Prediction", "setting": "[2]; Treatment #3", "value": 110, "unit": "%"},
      {"measurement": "FEV1/FVC (%) Actual", "setting": "[2]; Treatment #3", "value": 87, "unit": "%"},
      {"measurement": "FVC % of Prediction", "setting": "[2]; Treatment #3", "value": 125, "unit": "%"},
      {"measurement": "FVC (L) Actual", "setting": "[2]; Treatment #3", "value": 4.733, "unit": "L"},
      {"measurement": "PEF % of Prediction", "setting": "[2]; Treatment #3", "value": 112, "unit": "%"},
      {"measurement": "PEF (L/S) Actual", "setting": "[2]; Treatment #3", "value": 7.225, "unit": "L/S"},
      {"measurement": "FEF (25–75%) % Change", "setting": "[2]; [9]", "value": 36, "unit": "%"},
      {"measurement": "FEV1 % Change", "setting": "[2]; [9]", "value": 42, "unit": "%"},
      {"measurement": "FEV1/FVC % Change", "setting": "[2]; [9]", "value": 6, "unit": "%"},
      {"measurement": "FVC % Change", "setting": "[2]; [9]", "value": 35, "unit": "%"},
      {"measurement": "PEF % Change", "setting": "[2]; [9]", "value": 13, "unit": "%"},
      {"measurement": "lung capacity and airflow after treatment", "setting": "[2]; summary in words", "value": "marked improvement in lung capacity and airflow"}
    ]}
  ]
}
